Data on ten compounds can be found in patent US11078189B2, “Pharmaceutical compounds” (REVIRAL LIMITED, priority 2017, dated 2021).

In data set [1] the target is T1, RSV fusion (pCDNA3.1_A2_F in HEK 293T cells) (Human respiratory syncytial virus A, UniProt P03420).
T1 construct: expressed in transfected cells; host or cells: HEK 293T (ECACC 12022001)
Description: RSV fusion assay. Type of data set: cell-based. The procedure: HEK 293T ((ECACC 12022001) cells were cultured in T75 culture flasks in Dulbecco's medium (DMEM) containing 10% Foetal Bovine serum (FBS), 50 units per mL Penicillin and 50 μg/mL Streptomycin and warmed to 37° C. prior to use. The cells were passaged by first washing briefly with 5 mL Phosphate buffered saline (PBS), followed by addition of 2 mL of Trypsin Ethylenediaminetetraacetic acid (EDTA) to detach the cells. Once cells had detached from the flask, 8 mL media was then added to and the cells dispersed via pipetting against the bottom of the flask.
The cells were counted and diluted to 3×10^5 cells/ml in fresh media. Two T75 flasks were each seeded with 15.6 mL diluted cells, cells were also subcultured at a ratio of between 1:2 and 1:10, to continue the stock. The flasks were then incubated for 24 h at 37° C. and 5% CO2.
The plasmid DNA (for pFR-Luc and pcDNA3. 1_Gal4/NFKB) to be transfected into the HEK 293T cells was first prepared in serum free media (Opti-MEM, Invitrogen), containing the transfection reagent FuGENE® 6 (Promega). Serum free media was placed in a 1.5 mL eppendorf tube then the FuGENE 6 was added into the media. The tube was vortexed for 1 s before being incubated at RT for 5 min. 7.79 ng of both pFR_luc and pCDNA3.1_A2_F plasmid DNA were added to tube 1 and 7.79 ng of pCDNA3.1_GAL4-NF-κB plasmid to tube 2. The tubes were vortexed for 1 second and then incubated at room temperature for 15 min. Each transfection mixture was then added into the media of one of the T75 flasks of 293T cells. Cells were cultured for 24h at 37° C., 5% CO2 in a humidified incubator.
Compounds were diluted (in a polypropylene round-bottomed 96 well plate) 1:3 in a twelve point dilution curve to give top [final] of either 25 μM, 3 μM, 1 μM or 500 nM. A control compound was included in every assay at a top concentration of 3 μM. Transfected cells were counted and diluted to 4×10^5 cells/mL in fresh media. 50 μL of transfection population 1 were added to all wells of the 96 well flat bottom white opaque assay plates. 100 μL diluted compound (2 rows per compound), control compound (one row) and controls (DMSO (0% inhibition, four wells), 3 μM positive control (100% inhibition, four wells) and media (transfection population 1 only, four wells) were added to the appropriate wells. 50 μL of the diluted (4×10^5 cells/mL) population 2 cells when then added to all wells, except the four wells of transfection population 1 only where an extra 50 μL of this cells population was added.
The plates were then incubated for 24 h at 37° C. and 5% CO2. After this time, 100 μL was removed from all wells and 60 μL of ONE-Glo™ (Promega) reagent, pre-equilibrated to room temperature, was added. Plates were then incubated for 3 min at room temperature before luminescence was read, using the ONE-Glo protocol, on the GloMax Explorer System (Promega) multimode reader. Analysis was carried out in Dotmatics software. All raw data were background subtracted (subtraction of mean 3 μM positive control value), before IC50 calculation.

Data set [2] relates to RSV A2 VR-1540. Description: RSV plaque reduction assay. Type of data set: cell-based. The note with it: human respiratory syncytial virus; Strain A2; n = 1; HEp-2 cells. As for the experimental part:
HEp-2 cells (ATCC, CCL23) were passaged in flasks and seeded in 96-well plates in DMEM containing antibiotics and supplemented with 10% FBS. During inoculation and subsequent incubation, cells were cultured in DMEM containing 3% FBS. 100 plaque forming unit (PFU)/well of RSV (RSV A2 VR-1540) was mixed with ten serial dilutions of compound. Subsequently, 100 μL of the virus/compound mixtures was added to confluent HEp-2 cell monolayers. The cells and virus/compound mixtures were incubated at 35° C. in a humidified 5% CO2 incubator for 1 day.
Cells were washed twice with PBS before adding 50% v/v EtOH/MeOH, and then stored at −20° C. On the day of the staining, fixative was first removed from the plates. Plates were washed 3× with PBS. A pre-titrated amount of the primary antibody was added in 60 μL PBS/2% milk powder, and plates incubated for 1 h at […]. The plates were washed 3× with PBS/0.05% Tween20 before addition of goat anti-mouse horse radish peroxidase in 60 μL PBS/2% milk powder, and incubated for 1 h at rt. Following three wash steps with PBS/0.05% Tween20, 60 μL ready-to-use TrueBlue was added and plates were incubated at rt for 10-15 min before adding MilliQ water. Plates were washed once with water, incubated for 30-60 min and after removal of water, air-dried in the dark.
Plates were scanned and analyzed using the Immunospot S6 UV analyzer, which is equipped with BioSpot analysis software for counting immunostained plaques (virospots). Plaque counts were used to calculate % infection relative to the mean of the spot count (SC) in the virus control wells for RSV. IC50/IC90 values were calculated as 50% or 90% reduction in signal, respectively, by interpolation of inhibition curves fitted with a 4-parameter nonlinear regression with a variable slope in GraphPad 5.0 (Prism).

Data set [3] has as its system MDR1. As to the kind of experiment: in vitro. To be noted: dog, MDCK-MDR1. Type of data set: in vitro ADME. The procedure:
MDR1-MDCK cells obtained from the NIH (Rockville, Md., USA) are used between passage numbers 6-30. Cells are seeded onto Millipore Multiscreen Transwell plates at 3.4×10^5 cells/cm^2. The cells are cultured in DMEM and media is changed on day 3. On day 4 the permeability study is performed. Cell culture and assay incubations are carried out at 37° C. in an atmosphere of 5% CO2 with a relative humidity of 95%. On the day of the assay, the monolayers are prepared by rinsing both basolateral and apical surfaces twice with Hanks Balanced Salt Solution (HBSS) at the desired pH warmed to 37° C. Cells are then incubated with HBSS at the desired pH in both apical and basolateral compartments for 40 min to stabilise physiological parameters.
The dosing solutions are prepared by diluting test compound with assay buffer to give a final test compound concentration of 10 μM (final DMSO concentration of 1% v/v). The fluorescent integrity marker lucifer yellow is also included in the dosing solution. Analytical standards are prepared from test compound DMSO dilutions and transferred to buffer, maintaining a 1% v/v DMSO concentration.
For assessment of A-B permeability, HBSS is removed from the apical compartment and replaced with test compound dosing solution. The apical compartment insert is then placed into a companion plate containing fresh buffer (containing 1% v/v DMSO). For assessment of B-A permeability, FIBSS is removed from the companion plate and replaced with test compound dosing solution. Fresh buffer (containing 1% v/v DMSO) is added to the apical compartment insert, which is then placed into the companion plate. At 60 min the apical compartment inserts and the companion plates are separated and apical and basolateral samples diluted for analysis. Test compound permeability is assessed in duplicate. Compounds of known permeability characteristics are run as controls on each assay plate.
Test and control compounds are quantified by LC-MSMIS cassette analysis using an 8-point calibration with appropriate dilution of the samples. The starting concentration (C0) is determined from the dosing solution and the experimental recovery calculated from C0 and both apical and basolateral compartment concentrations. The integrity of the monolayer throughout the experiment is checked by monitoring lucifer yellow permeation using fluorimetric analysis. Lucifer yellow permeation is high if monolayers have been damaged.

T1 sequence (P03420 26-109): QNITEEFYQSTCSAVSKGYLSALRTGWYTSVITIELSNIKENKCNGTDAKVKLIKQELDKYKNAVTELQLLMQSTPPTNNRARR
T1 sequence (P03420 137-574): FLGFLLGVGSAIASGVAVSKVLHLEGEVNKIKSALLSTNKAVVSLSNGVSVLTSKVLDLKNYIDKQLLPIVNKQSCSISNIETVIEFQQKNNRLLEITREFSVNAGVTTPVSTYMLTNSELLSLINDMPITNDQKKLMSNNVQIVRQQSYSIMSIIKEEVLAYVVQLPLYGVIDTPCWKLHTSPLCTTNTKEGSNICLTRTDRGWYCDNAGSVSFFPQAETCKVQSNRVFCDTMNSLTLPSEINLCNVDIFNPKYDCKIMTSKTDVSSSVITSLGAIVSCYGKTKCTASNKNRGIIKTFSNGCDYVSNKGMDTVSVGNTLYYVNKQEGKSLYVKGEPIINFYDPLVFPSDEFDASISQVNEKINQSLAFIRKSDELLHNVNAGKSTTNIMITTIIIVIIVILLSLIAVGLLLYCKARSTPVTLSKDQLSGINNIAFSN

Compound `CS(=O)(=O)N1CCN(CCCn2c(CN3C(=O)C4(CC4)c4ccc(F)cc43)nc3cc(Cl)ccc32)CC1` [Compound 1, 1′-({5-Chloro-1-[3-(4-methanesulfonylpiperazin-1-yl)propyl]-1H-1,3-benzodiazol-2-yl}methyl)-6′-fluoro-1,2′-dihydrospiro[cyclopropane-1,3′-indole]-2′-one] came in with an IC50 in data set [1] of 19 nM. In data set [2], this compound registered an IC50 of 5.9 nM and a 90% effect concentration (IC90) of 50 nM.
`CS(=O)(=O)N1CCN(CCn2c(CN3C(=O)C4(CC4)c4ccc(F)cc43)nc3cc(Cl)ccc32)CC1` [Compound 9, 1′-({5-chloro-1-[2-(4-methanesulfonylpiperazin-1-yl)ethyl]-1H-1,3-benzodiazol-2-yl}methyl)-6′-fluoro-1′,2′-dihydrospiro[cyclopropan-1,3′-indole]-2′-one]: the figures for the IC50 in data set [1] and in data set [2] were 15 nM and 4.2 nM, respectively. The same compound had an IC90 in data set [2] of 28 nM.
For the compound `CS(=O)(=O)CCNCCCn1c(CN2C(=O)C3(CC3)c3ccc(F)cc32)nc2cc(Cl)ccc21` [Compound 10, 1′-[(5-Chloro-1-{3-[(2-methanesulfonylethyl)amino]propyl}-1H-1,3-benzodiazol-2-yl)methyl]-6′-fluoro-1′,2′-dihydrospiro[cyclopropane-1,3′-indole]-2′-one], the IC50 in data set [1] is 12 nM; in data set [2] it was 2.5 nM. The IC90 in data set [2] stood at 31 nM.
As for `CCS(=O)(=O)CCNCCCn1c(CN2C(=O)C3(CC3)c3ccc(F)cc32)nc2cc(Cl)ccc21` [Compound 11, 1′-{[5-Chloro-1-(3-{[2-(ethanesulfonyl)ethyl]amino}propyl)-1H-1,3-benzodiazol-2-yl]methyl}-6′-fluoro-1′,2′-dihydrospiro[cyclopropane-1,3′-indole]-2′-one], the IC50 turned out to be 24 nM in data set [1] and 5 nM in data set [2]. Further, the IC90 in data set [2] was found to be 41 nM.
Turning to `CC(C)[C@H](NCCCn1c(CN2C(=O)C3(CC3)c3ccc(F)cc32)nc2cc(Cl)ccc21)C(N)=O` [Compound 12, (2S)-2-({3-[5-chloro-2-({6′-fluoro-2′-oxo-1′,2′-dihydrospiro[cyclopropane-1,3′-indole]-1′-yl}methyl)-1H-1,3-benzodiazol-1-yl]propyl}amino)-3-methylbutanamide], the IC50 in data set [1] is 71 nM. In data set [2], this compound returned an IC50 of 29 nM and an IC90 of 200 nM.
In turn, `CS(=O)(=O)C1CN(CCCn2c(CN3C(=O)C4(CC4)c4ccc(F)cc43)nc3cc(Cl)ccc32)C1` [Compound 13, 1′-({5-Chloro-1-[3-(3-methanesulfonylazetidin-1-yl)propyl]-1H-1,3-benzodiazol-2-yl}methyl)-6′-fluoro-1′,2′-dihydrospiro[cyclopropane-1,3′-indole]-2′-one] registered an IC50 in data set [1] of 10 nM. Also, in data set [2], the IC50 came to 4.5 nM and the IC90 stood at 41 nM.
In the case of `CS(=O)(=O)C1CCN(CCCn2c(CN3C(=O)C4(CC4)c4ccc(F)cc43)nc3cc(Cl)ccc32)C1` (stereo not shown) [Compound 14, 1′-({5-Chloro-1-[3-(3-methanesulfonylpyrrolidin-1-yl)propyl]-1H-1,3-benzodiazol-2-yl}methyl)-6′-fluoro-1′,2′-dihydrospiro[cyclopropane-1,3′-indole]-2′-one], the IC50 in data set [1] was 18 nM. In data set [3], this compound came in with an apparent permeability from apical to basolateral (Papp A→B) at 60 min, 10 μM of 4.8 ×10⁻⁶ cm/s and a Papp B→A at 60 min, 10 μM of 68 ×10⁻⁶ cm/s. Besides, in data set [2], the IC50 was 3.5 nM and the 90% effect level (IC90) was put at 34 nM.
`O=C1N(Cc2nc3cc(Cl)ccc3n2CCCN2CCOCC2)c2cc(F)ccc2C12CC2` [Compound 18, 1′-({5-Chloro-1-[3-(morpholin-4-yl)propyl]-1H-1,3-benzodiazol-2-yl}methyl)-6′-fluoro-1′,2′-dihydrospiro[cyclopropane-1,3′-indole]-2′-one] gave an IC50 in data set [1] of 70 nM. In data set [2], inhibition was half-maximal at 7.6 nM (IC50) and the IC90 was found to be 60 nM.
The compound `CS(=O)(=O)C1CCN(CCCn2c(CN3C(=O)C4(CC4)c4ccc(F)cc43)nc3cc(Cl)ccc32)CC1` [Compound 20, 1′-({5-Chloro-1-[3-(4-methanesulfonylpiperidin-1-yl)propyl]-1H-1,3-benzodiazol-2-yl}methyl)-6′-fluoro-1′,2′-dihydrospiro[cyclopropane-1,3′-indole]-2′-one] came in with an IC50 in data set [1] of 12 nM. Further, in data set [3], the Papp A→B at 60 min, 10 μM turned out to be 1.6 ×10⁻⁶ cm/s and the Papp B→A at 60 min, 10 μM came to 61.3 ×10⁻⁶ cm/s. In data set [2], the IC50 was 5.9 nM and the 90% effect level (IC90) was put at 7.5 nM.
As for `O=C1N(Cc2nc3cc(Cl)ccc3n2CCCN2CCS(=O)(=O)CC2)c2cc(F)ccc2C12CC2` [Compound 28, 4-{3-[5-Chloro-2-({6′-fluoro-2′-oxo-1′,2′-dihydrospiro[cyclopropane-1,3′-indole]-1′-yl}methyl)-1H-1,3-benzodiazol-1-yl]propyl}-1λ6-thiomorpholine-1,1-dione], in data set [1], the IC50 worked out at 115 nM. In data set [2], the midpoint of inhibition, the IC50, lay at 9.5 nM and the 90% effect level (IC90) was put at 48 nM.
